{
  "source": "patent US20210254056A1",
  "about": "“IDENTIFICATION AND TARGETED MODULATION OF GENE SIGNALING NETWORKS” (CAMP4 THERAPEUTICS CORPORATION, priority 2017, published 2021)",
  "key": {"[1]": {"tested_on": "Early erythroblast progenitor cells derived from cord blood", "test": "Reversion of immortality after doxycycline withdrawal (qRT-PCR, cell size)", "type": "cell-based, human"}, "[2]": {"tested_on": "primary human hepatocytes"}, "[3]": {"tested_on": "primary human hepatocytes", "test": "RNA-seq of primary human hepatocytes treated with 39 small molecules (pilot and validation)", "details": "for significant modulation of gene expression: RNA-seq, p-value≤0.05, primary human hepatocytes, the modulated genes are listed in the block; for Number (#) of genes having significantly changed expression: pilot RNA-seq study of Example 2, significance: FPKM≥0.5, log 2(fold change)≥1, q-value ≤0.05"}, "[4]": {"details": "sample D2-Dox− (2 days after doxycycline withdrawn)"}, "[5]": {"details": "sample D3-Dox− (3 days after doxycycline withdrawn)"}, "[6]": {"details": "sample D4-Dox− (4 days after doxycycline withdrawn)"}, "[7]": {"details": "sample D5-Dox− (5 days after doxycycline withdrawn)"}},
  "data": [
    {"smiles": "C[C@H]1c2cccc(O)c2C(=O)C2=C(O)[C@]3(O)C(=O)C(C(N)=O)=C(O)[C@@H](N(C)C)[C@@H]3[C@@H](O)[C@@H]21", "note": "[Dox]", "values": [
      {"measurement": "RQ of ALAS2", "setting": "[1]; [4]", "value": 2.98},
      {"measurement": "RQ of BCLXL", "setting": "[1]; [4]", "value": 0.29},
      {"measurement": "RQ of HBB", "setting": "[1]; [4]", "value": 7.81},
      {"measurement": "RQ of MYC", "setting": "[1]; [4]", "value": 0.04},
      {"measurement": "RQ of RPS19", "setting": "[1]; [4]", "value": 0.28},
      {"measurement": "RQ of p21", "setting": "[1]; [4]", "value": 2.31},
      {"measurement": "RQ of p53", "setting": "[1]; [4]", "value": 0.40},
      {"measurement": "RQ of ALAS2", "setting": "[1]; [5]", "value": 1.44},
      {"measurement": "RQ of BCLXL", "setting": "[1]; [5]", "value": 0.11},
      {"measurement": "RQ of HBB", "setting": "[1]; [5]", "value": 5.57},
      {"measurement": "RQ of MYC", "setting": "[1]; [5]", "value": 0.03},
      {"measurement": "RQ of RPS19", "setting": "[1]; [5]", "value": 0.21},
      {"measurement": "RQ of p21", "setting": "[1]; [5]", "value": 1.05},
      {"measurement": "RQ of p53", "setting": "[1]; [5]", "value": 0.21},
      {"measurement": "RQ of ALAS2", "setting": "[1]; [6]", "value": 0.94},
      {"measurement": "RQ of BCLXL", "setting": "[1]; [6]", "value": 0.07},
      {"measurement": "RQ of HBB", "setting": "[1]; [6]", "value": 4.89},
      {"measurement": "RQ of MYC", "setting": "[1]; [6]", "value": 0.06},
      {"measurement": "RQ of RPS19", "setting": "[1]; [6]", "value": 0.28},
      {"measurement": "RQ of p21", "setting": "[1]; [6]", "value": 2.03},
      {"measurement": "RQ of p53", "setting": "[1]; [6]", "value": 0.22},
      {"measurement": "RQ of ALAS2", "setting": "[1]; [7]", "value": 0.40},
      {"measurement": "RQ of BCLXL", "setting": "[1]; [7]", "value": 0.04},
      {"measurement": "RQ of HBB", "setting": "[1]; [7]", "value": 2.13},
      {"measurement": "RQ of MYC", "setting": "[1]; [7]", "value": 0.06},
      {"measurement": "RQ of RPS19", "setting": "[1]; [7]", "value": 0.27},
      {"measurement": "RQ of p21", "setting": "[1]; [7]", "value": 1.61},
      {"measurement": "RQ of p53", "setting": "[1]; [7]", "value": 0.20}
    ]},
    {"smiles": "CC(C)N(CCC(C(N)=O)(c1ccccc1)c1ccccn1)C(C)C", "note": "(stereo not shown) [MT-189, Disopyramide]", "values": [
      {"measurement": "Log2 fold changes in gene expression: CYP2C19", "setting": "[2]", "value": 0.18},
      {"measurement": "Log2 fold changes in gene expression: CYP3A4", "setting": "[2]", "value": 0.03},
      {"measurement": "significant modulation of gene expression", "setting": "[3]", "value": "significantly (p-value≤0.05) modulate"},
      {"measurement": "Number (#) of genes having significantly changed expression", "setting": "[3]", "value": 7}
    ]},
    {"smiles": "CCc1oc2ccccc2c1C(=O)c1cc(Br)c(O)c(Br)c1", "note": "[MT-220, Benzbromarone]", "values": [
      {"measurement": "Log2 fold changes in gene expression: CYP2C19", "setting": "[2]", "value": 0.57},
      {"measurement": "Log2 fold changes in gene expression: CYP3A4", "setting": "[2]", "value": 0.87},
      {"measurement": "cytotoxicity in hepatocytes", "setting": "[2]", "value": "cytotoxic"},
      {"measurement": "significant modulation of gene expression", "setting": "[3]", "value": "significantly (p-value≤0.05) modulate"},
      {"measurement": "Number (#) of genes having significantly changed expression", "setting": "[3]", "value": 119}
    ]}
  ]
}
